{"source": "paper PMC8155056", "about": "“Cooperative inhibition of SNARE-mediated vesicle fusion by α-synuclein monomers and oligomers” (Scientific Reports, 2021)", "key": {"Syb2-carrying v-vesicles": {"system": "Syb2-carrying v-vesicles", "assay": "Cryo-EM of v-vesicle clustering", "protocol": "Then, we tested the effect on vesicle clustering. We have proposed that α-Syn oligomers inhibit vesicle fusion by clustering synaptic vesicle mimics in vitro, thereby limiting the number of vesicles available for docking. A few micromolar α-Syn monomer is also known to induce vesicle clustering[27],[29],[30],[38]. Thus, it is possible that the α-Syn monomer by itself cannot induce vesicle clustering at the low concentration (less than 1 μM) that we applied in this work but assists α-Syn oligomers in clustering vesicles. We obtained images of v-vesicles treated with α-Syn oligomers in the presence and absence of monomers using cryo-electron microscopy (cryo-EM) (Fig. 2). The molar ratio of lipid: α-Syn oligomers: α-Syn monomers was 200:1:20. When more than ten vesicles were attached together, we assigned them as a vesicle clustering. In the absence of α-Syn, v-vesicles appeared without clustering (Fig. 2A). […] Cryo-EM could not resolve α-Syn oligomers because of its resolution limit. Since α-Syn oligomers are known to inhibit vesicle fusion through binding to the N-terminal domain of Syb2[15], we tested if their specific interactions with Syb2 are responsible for clustering the vesicles. We reconstituted v-vesicles with Syb2 lacking the N-terminal region (nt-Syb2, amino acids 29–116) and incubated them with α-Syn oligomers. […] While 22.7 ± 1.2 vesicles consisted of a cluster with α-Syn oligomers, 123.5 ± 11.5 vesicles clustered after the addition of α-Syn monomers together with oligomers. […] Although it is difficult to quantify the fraction of the flattened region, this structure was not observed in images of vesicles treated with α-Syn oligomers only (Fig. 2C, enlarged image). The addition of α-Syn monomer with α-Syn oligomers seemed to induce tighter adhesion between the vesicles.\nv-Vesicles were incubated with α-Syn (molar ratio of lipid:α-Syn oligomer: monomer = 200:1:20). A 200-mesh carbon grid (Electron Microscopy Sciences) was glow-discharged using the PELCO easiGlow plasma cleaning system (Ted Pella, Inc.). […]"}, "[1]": {"system": "SNARE-mediated vesicle docking", "conditions": "nonaggregated α-Syn monomer, 10 μM; ref [42]; cited from earlier work", "description": "For the molecular mechanism of the inhibition, we proposed that α-Syn oligomers interfere with vesicle docking by clustering vesicles. […] Nonaggregated α-Syn or its monomer uses its interaction with Syb2 to help SNARE complex assembly[26] and induces the clustering of vesicles or Syb2, which promotes SNARE complex formation[25],[30]. […] All the functions of the α-Syn monomer are beneficial for neurotransmitter release."}, "[2]": {"system": "SNARE-mediated vesicle fusion (v-vesicles without PS)", "assay": "In vitro lipid-mixing (FRET) assay with v-vesicles prepared with 0% PS", "type": "biochemical", "conditions": "v-vesicles 0% PS", "protocol": "Figure 3 α-Syn monomer interactions with the lipid membrane enable cooperative inhibition of vesicle fusion. (A) The effect of the lipid-binding-deficient mutant of the α-Syn monomer (T44P/A89P) on fusion inhibition. v-Vesicles (V) were incubated with the T44P/A89P monomer for 10 min, and then α-Syn oligomers and t-vesicles (T) were added to the premixture. T and V (20 μM lipid concentration) were mixed together at 37 °C without α-Syn (T-V, gray line). […] A control measurement using soluble Syb2 confirmed that lipid mixing was driven by SNARE complex formation (beige line). Bar graphs were obtained from the values at 2000s from the FRET measurements (± SEM, N = 3). *P < 0.05, **P < 0.01, ***P < 0.001 by Student’s t test. (B) The effect of the negatively charged lipid (PS) on fusion inhibition. v-Vesicles (V) prepared with 0% PS were used in the measurement. v-Vesicles without PS were incubated with wild-type α-Syn monomer, and then t-vesicles (T) and oligomers were added to the premixture. […]\n(§1) t-Vesicles labeled with DiI and v-vesicles labeled with DiD were mixed together to reach a 20 μM lipid concentration. […] We used 532-nm light for excitation and detected the FRET signal (at 690 nm) every 10 s using a temperature-controlled fluorescence spectrophotometer (Cary Eclipse, Agilent) at 37 °C."}, "[3]": {"system": "α-Syn oligomers and monomers", "assay": "Western blot of α-Syn monomer incubated with preformed oligomers", "conditions": "α-Syn monomer (500 nM) with preformed oligomers (10 nM), no dopamine, 37 °C, 12 h / up to 10 hours (Fig. S4)", "protocol": "We first tested whether the incubation of the α-Syn monomer with oligomers increases the amount of α-Syn oligomers. […] This is consistent with previous work showing that dopamine-modified α-Syn oligomers are not seeding competent.\nPurified proteins were subjected to 15% SDS/PAGE and then transferred to polyvinylidene fluoride membranes (Bio-Rad), which were then blocked with 5% (w/v) skim milk in Tris-buffered saline with 0.1% Tween 20 detergent (TBST) (500 mM Tris, pH 8.5; 150 mM NaCl; […]) for 1 h and incubated with α-Syn primary antibody [sc-52979 (Santa Cruz Biotechnology) at a 1:750 dilution factor] for 12 h at 4 °C. The membrane was rinsed with TBST, incubated with anti-mouse IgG peroxidase secondary antibody (Sigma; 1:2500 dilution factor), washed again with TBST, and reacted with chemiluminescent substrate solution (ThermoFisher Scientific, SuperSignal West Pico Chemiluminescent Substrate) for 1 min. Resulting bands were detected using an LAS-4000 instrument (Fujifilm Life Science).\nFig. S4. […] Vesicle compositions are 73% PC, 20% cholesterol, and 7% PS. α-Syn monomers (500 nM) were incubated with the purified dopamine-induced oligomers (10 nM) at 37 ℃ for up to 10 hours and then the mixtures were applied to the Western blot analysis and probed with anti–α-Syn antibody. […] The image was edited by Adobe Illustrator CS6 (Adobe)."}, "[4]": {"system": "neuronal SNARE-mediated vesicle fusion (t-SNAREs syntaxin HT/SNAP25 and v-SNARE Syb2)", "assay": "In vitro lipid-mixing (FRET) assay of SNARE-mediated vesicle fusion, v-vesicles with PS", "type": "biochemical", "description": "To address this question, we performed an in vitro lipid-mixing assay using fluorescently labeled proteoliposomes[31],[32]. In this assay, t-SNAREs [complexes of syntaxin Habc-trunctated (HT) (amino acids 168–288 of syntaxin 1A, lacking the Habc domain) and synaptosomal-associated protein-25 (SNAP25)] and v-SNARE Syb2 were incorporated into two different liposomes (t- and v-vesicles, respectively)[15],[31]. When t-vesicles doped with donor dyes (T) and v-vesicles doped with acceptor dyes (V) were fused together through SNARE complex formation[31],[33],[34], the lipids from the two types of vesicles mixed (Fig. 1B). This lipid mixing was monitored by the fluorescence resonance energy transfer (FRET) signal between 1,1′-dioctadecyl-3,3,3′,3′-tetramethylindocarbocyanine perchlorate (DiI) and 1,1′-dioctadecyl3,3,3′,3′-tetramethylindodicarbocyanine perchlorate (DiD) dyes (Supplementary Fig. S1B). α-Syn oligomers were prepared by incubating the α-Syn monomer (15 μM) with dopamine (100 μM) at 37 °C for 72 h (Supplementary Fig. S2A) and purified using size exclusion chromatography (Supplementary Fig. S2B and C)[15],[35]–[37]. We have estimated that the oligomers contain approximately 17 α-Syn monomeric subunits in our previous work[15]. Without the addition of α-Syn oligomers, the T-V mixture presented a significant mixing of lipids (Fig. 1C, the gray line).\nWe prepared three 30-residue peptides (CFα1, CFα2, and CFα3) that were mainly derived from the C-terminal domain of α-Syn (Anygen, South Korea) (Fig. 5A; Table 1) because the C-terminal domain of α-Syn (a.a. 96–140) is known to bind to the N-terminal domain of Syb2[26]. We confirmed the binding between the peptide and Syb2 using fluorescence anisotropy assay (Supplementary Fig. S8). […]\nas §1"}}, "note": "Entries after “also recorded” stand apart in the source; their conditions may differ.", "data": [{"substance": "α-synuclein [α-Syn monomer]", "values": [{"measurement": "clustering of v-vesicles", "setting": "Syb2-carrying v-vesicles; α-Syn monomer alone, lipid:monomer 10:1 (5 μM:0.5 μM)", "value": "no clustering of v-vesicles was observed"}, {"measurement": "clustering of v-vesicles", "setting": "Syb2-carrying v-vesicles; α-Syn monomer and oligomers, lipid:oligomers:monomers 200:1:20", "value": "they formed larger clusters; also recorded: The vesicle cluster was significantly larger than that observed in (C)"}, {"measurement": "number of vesicles per cluster", "setting": "Syb2-carrying v-vesicles; α-Syn monomers together with oligomers, lipid:oligomers:monomers 200:1:20", "value": "123.5 ± 11.5", "unit": "vesicles"}, {"measurement": "effect on SNARE-dependent vesicle docking", "setting": "[1]", "value": "beneficial for SNARE-dependent vesicle docking"}, {"measurement": "recovery of SNARE-mediated lipid mixing", "setting": "[2]; 2 μM wild-type α-Syn monomer with α-Syn oligomers, 37 °C, at 2000 s, N = 3", "value": "~100", "unit": "%"}, {"measurement": "effect on fusion inhibition by oligomers", "setting": "[2]; wild-type α-Syn monomer (200 nM to 2 μM) with α-Syn oligomers", "value": "the FRET signal increased; also recorded: attenuated"}, {"measurement": "change in amounts of oligomers and monomers", "setting": "[3]", "value": "No change in the intensities of the oligomers, multimers, and monomer was observed; also recorded: no change in the amounts of oligomers and monomers was observed"}, {"measurement": "fusion efficiency (relative lipid mixing)", "setting": "[4]; 10 nM α-Syn oligomers + 850 nM α-Syn monomer, monomer pre-incubated with V 10 min, 37 °C, at 1800 s, N = 3", "value": 25, "unit": "%"}, {"measurement": "effect on fusion inhibition by oligomers", "setting": "[4]; wild-type α-Syn monomer together with 10 nM α-Syn oligomers, 37 °C", "value": "more severe inhibition of vesicle fusion between T and V was observed as the concentration of α-Syn monomer increased; also recorded: the FRET signal was lower than that of the α-Syn oligomer-treated vesicle fusion"}, {"measurement": "effect on lipid mixing", "setting": "[4]; α-Syn monomer alone, 200–850 nM, 10 min incubation with v-vesicles, N = 3", "value": "negligible effect on lipid mixing; also recorded: no effect on SNARE-mediated lipid mixing; also recorded: negligible effect on SNARE-mediated vesicle fusion"}]}]}
